Assay results reported in EP0472800A1, “Metoprololnicotinic acid ester, method of preparation and pharmaceutical use” (Sandmeier, Peter, Dr., priority 1990, dated 1992).
Where a name gives a salt, the structure may show the parent alone.

Set-up: species or system Hunden
Settings: dog, in vivo, 0 min
Text: Die verhältnismässig einfache Synthese führt zu einer bemerkenswert hohen Ausbeute des erfinderischen Moleküls, der Metoprololnicotinsäure. Die an Hunden experimentierte Prodrugwirkung in drei verschiedenenen Dosen ergab folgende Retardwerte: (µg freie Base im Zielkompartiment)
Das Resultat zeigt, dass eine relativ hohe Konzentration im Plasma bis zu vier Stunden erwartet werden kann, was die deutlich retardierte Prodrugwirkung beweist. Die Dosis C zeigt unter anderem, dass auch kleine Konzentrationen einen langanhaltenden Spiegel zeigen.

freie Base im Zielkompartiment (Retardwerte): 0 µg
Compound: COCCc1ccc(OCC(CNC(C)C)OC(=O)c2cccnc2)cc1 (racemic) [Metoprololnicotinsäure, Metoprololnicotinsäureester-HCl]
